According to US6737383B1, “Herbicidal oxadiazolidines” (priority 1999, dated 2004):

Legend:
pigweed = experiment: Test B pre/postemergence pigweed; assay type: in vivo, Amaranthus retroflexus
Outline: (§1)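 Response is a visual 0-to-10 score relative to untreated plants, where 0 means no effect and 10 means complete control, taken twelve to sixteen days after application. Treatments went onto soil at planting and onto foliage of 1- to 4-leaf plants, using a surfactant-containing non-phytotoxic solvent.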

wild oat = experiment: Test B pre/postemergence wild oat; assay type: in vivo, Avena fatua
Outline: as §1

bamyardgrass = experiment: Test B flood test barnyardgrass; assay type: in vivo, Echinochloa crus-galli; settings: Pre-emergence
Outline: (§2)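 Read-out is a visual response score from 0 (no effect) to 10 (complete control), assigned by comparison with untreated controls. Treatment was applied at the 2-leaf stage, and plants stayed in the greenhouse for twelve to sixteen days before scoring.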

wheat = experiment: Test B pre/postemergence wheat; assay type: in vivo, Triticum aestivum
Outline: as §1

smallflower flatsedge = experiment: Test B flood test smallflower flatsedge; assay type: in vivo, Cyperus difformis; settings: Pre-emergence
Outline: as §2

surinam grass = experiment: Test B pre/postemergence surinam grass; assay type: in vivo, Brachiaria decumbens
Outline: as §1

crabgrass = experiment: Test B pre/postemergence crabgrass; assay type: in vivo, Digitaria sanguinalis
Outline: as §1

morningglory = experiment: Test B pre/postemergence morningglory; assay type: in vivo, Ipomoea hederacea
Outline: as §1

bedstraw = experiment: Test B pre/postemergence bedstraw; assay type: in vivo, Galium aparine
Outline: as §1

cocklebur = experiment: Test B pre/postemergence cocklebur; assay type: in vivo, Xanthium strumarium
Outline: as §1

giant foxtail = experiment: Test B pre/postemergence giant foxtail; assay type: in vivo, Setaria faberii
Outline: as §1

corn = experiment: Test B pre/postemergence corn; assay type: in vivo, Zea mays
Outline: as §1

rice = experiment: Test B flood test rice; assay type: in vivo, Oryza sativa; settings: Pre-emergence
Outline: as §2

velvetleaf = experiment: Test B pre/postemergence velvetleaf; assay type: in vivo, Abutilon theophrasti
Outline: as §1

soybean = experiment: Test B pre/postemergence soybean; assay type: in vivo, Glycine max
Outline: as §1

blackgrass = experiment: Test B pre/postemergence blackgrass; assay type: in vivo, Alopecurus myosuroides
Outline: as §1

[1] = Preemergence, Rate 62 g/ha, scale of 0 to 10 where 0 is no effect and 10 is complete control
[2] = Preemergence, Rate 250 g/ha, scale of 0 to 10 where 0 is no effect and 10 is complete control
[3] = Preemergence, Rate 500 g/ha, scale of 0 to 10 where 0 is no effect and 10 is complete control
[4] = Rate 62 g/ha, Postemergence, scale 0 to 10 (0 no effect, 10 complete control)
[5] = Rate 125 g/ha, Postemergence, scale of 0 to 10 where 0 is no effect and 10 is complete control
[6] = Rate 250 g/ha, Postemergence, scale of 0 to 10 where 0 is no effect and 10 is complete control
[7] = Rate 1000 g/ha, scale 0 to 10 (0 no effect, 10 complete control)
[8] = Rate 125 g/ha, flood test species, scale 0 to 10 where 0 is no effect and 10 is complete control
[9] = Rate 250 g/ha, flood-test species, scale 0 to 10, 0 is no effect, 10 is complete control
[10] = Rate 500 g/ha, flood test species, scale 0 to 10 (0 no effect, 10 complete control)
[11] = Rate 500 g/ha, Postemergence, scale 0 to 10, 0 no effect, 10 complete control

CCN(C(=O)n1oc(=O)n(C2CCCCC2)c1=O)C1CCCCC1 [Compound 308]
2: Plant response rating, Morningglory (morningglory; [6])
1: Soybean plant response rating (soybean; [4]) | Soybean plant response rating (soybean; [5]) | Plant response rating, Soybean (soybean; [6])
0: Redroot pigweed plant response rating (pigweed; [1]) | Redroot pigweed plant response rating (0 to 10 scale) (pigweed; Preemergence, Rate 125 g/ha) | Redroot pigweed plant response rating (pigweed; [2]) | Redroot pigweed plant response rating (pigweed; [3]) | Redroot pigweed plant response rating (pigweed; [4]) | Redroot pigweed plant response rating (pigweed; [5]) | Plant response rating, Redroot pigweed (pigweed; [6]) | Wild oats plant response rating (wild oat; [1]) | Wild oats plant response rating (0 to 10 scale) (wild oat; Preemergence, Rate 125 g/ha) | Wild oats plant response rating (wild oat; [2]) | Wild oats plant response rating (wild oat; [3]) | Wild oats plant response rating (wild oat; [4]) | Wild oats plant response rating (wild oat; [5]) | Plant response rating, Wild oats (wild oat; [6]) | Barnyardgrass plant response rating (bamyardgrass; [7]) | Barnyardgrass plant response rating (bamyardgrass; [8]) | Barnyardgrass plant response rating (bamyardgrass; [9]) | Barnyardgrass plant response rating (bamyardgrass; [10]) | Wheat plant response rating (wheat; [1]) | Wheat plant response rating (0 to 10 scale) (wheat; Preemergence, Rate 125 g/ha) | Wheat plant response rating (wheat; [2]) | Wheat plant response rating (wheat; [3]) | Wheat plant response rating (wheat; [4]) | Wheat plant response rating (wheat; [5]) | Plant response rating, Wheat (wheat; [6]) | S. Flatsedge plant response rating (smallflower flatsedge; [7]) | S. Flatsedge plant response rating (smallflower flatsedge; [8]) | S. Flatsedge plant response rating (smallflower flatsedge; [9]) | S. Flatsedge plant response rating (smallflower flatsedge; [10]) | B. signalgrass plant response rating (surinam grass; [1]) | B. signalgrass plant response rating (0 to 10 scale, 0 is no effect, 10 is complete control) (surinam grass; Preemergence, Rate 125 g/ha) | B. signalgrass plant response rating (surinam grass; [2]) | B. signalgrass plant response rating (surinam grass; [3]) | B. signalgrass plant response rating (surinam grass; [4]) | B. signalgrass plant response rating (surinam grass; [5]) | Plant response rating, B. signalgrass (surinam grass; [6]) | B. signalgrass plant response rating (surinam grass; [11]) | Crabgrass plant response rating (crabgrass; [1]) | Crabgrass plant response rating (0 to 10 scale) (crabgrass; Preemergence, Rate 125 g/ha) | Crabgrass plant response rating (crabgrass; [2]) | Crabgrass plant response rating (crabgrass; [3]) | Crabgrass plant response rating (crabgrass; [4]) | Crabgrass plant response rating (crabgrass; [5]) | Plant response rating, Crabgrass (crabgrass; [6]) | Morningglory plant response rating (morningglory; [1]) | Morningglory plant response rating (0 to 10 scale) (morningglory; Preemergence, Rate 125 g/ha) | Morningglory plant response rating (morningglory; [2]) | Morningglory plant response rating (morningglory; [3]) | Morningglory plant response rating (morningglory; [4]) | Morningglory plant response rating (morningglory; [5]) | Bedstraw plant response rating (bedstraw; [1]) | Bedstraw plant response rating (0 to 10 scale) (bedstraw; Preemergence, Rate 125 g/ha) | Bedstraw plant response rating (bedstraw; [2]) | Bedstraw plant response rating (bedstraw; [3]) | Bedstraw plant response rating (bedstraw; [4]) | Bedstraw plant response rating (bedstraw; [5]) | Plant response rating, Bedstraw (bedstraw; [6]) | Bedstraw plant response rating (bedstraw; [11]) | Cocklebur plant response rating (cocklebur; [1]) | Cocklebur plant response rating (0 to 10 scale) (cocklebur; Preemergence, Rate 125 g/ha) | Cocklebur plant response rating (cocklebur; [2]) | Cocklebur plant response rating (cocklebur; [3]) | Cocklebur plant response rating (cocklebur; [4]) | Cocklebur plant response rating (cocklebur; [5]) | Plant response rating, Cocklebur (cocklebur; [6]) | Cocklebur plant response rating (cocklebur; [11]) | Giant foxtail plant response rating (giant foxtail; [1]) | Giant foxtail plant response rating (0 to 10 scale) (giant foxtail; Preemergence, Rate 125 g/ha) | Giant foxtail plant response rating (giant foxtail; [2]) | Giant foxtail plant response rating (giant foxtail; [3]) | Giant foxtail plant response rating (giant foxtail; [4]) | Giant foxtail plant response rating (giant foxtail; [5]) | Plant response rating, Giant foxtail (giant foxtail; [6]) | Corn plant response rating (corn; [1]) | Corn plant response rating (0 to 10 scale) (corn; Preemergence, Rate 125 g/ha) | Corn plant response rating (corn; [2]) | Corn plant response rating (corn; [3]) | Corn plant response rating (corn; [4]) | Corn plant response rating (corn; [5]) | Plant response rating, Corn (corn; [6]) | Corn plant response rating (corn; [11]) | Rice plant response rating (rice; [7]) | Rice plant response rating (rice; [8]) | Rice plant response rating (rice; [9]) | Rice plant response rating (rice; [10]) | Velvetleaf plant response rating (velvetleaf; [1]) | Velvetleaf plant response rating (0 to 10 scale) (velvetleaf; Preemergence, Rate 125 g/ha) | Velvetleaf plant response rating (velvetleaf; [2]) | Velvetleaf plant response rating (velvetleaf; [3]) | Velvetleaf plant response rating (velvetleaf; [4]) | Velvetleaf plant response rating (velvetleaf; [5]) | Plant response rating, Velvetleaf (velvetleaf; [6]) | Soybean plant response rating (soybean; [1]) | Soybean plant response rating (0 to 10 scale) (soybean; Preemergence, Rate 125 g/ha) | Soybean plant response rating (soybean; [2]) | Soybean plant response rating (soybean; [3]) | Blackgrass plant response rating (blackgrass; [1]) | Blackgrass plant response rating (0 to 10 scale) (blackgrass; Preemergence, Rate 125 g/ha) | Blackgrass plant response rating (blackgrass; [2]) | Blackgrass plant response rating (blackgrass; [3]) | Blackgrass plant response rating (blackgrass; [4]) | Blackgrass plant response rating (blackgrass; [5]) | Plant response rating, Blackgrass (blackgrass; [6]) | Blackgrass plant response rating (blackgrass; [11])
